Legend:
[1] = compound: CC(O)(CS(=O)(=O)c1ccc(F)cc1)C(=O)Nc1ccc(C#N)c(C(F)(F)F)c1 [Bicalutamide] + Cc1cc(Nc2cc(N3CCN(C)CC3)nc(Sc3ccc(NC(=O)C4CC4)cc3)n2)n[nH]1 [Tozasertib] (partner 0.1 µM); assay: relative viability (nuclei count vs DMSO), 5 days (fraction); higher = more cells survive
How it was run: (§1)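 Relative viability equals treated-well nuclei counts divided by vehicle-well nuclei counts. Counts came from 4× images of lung cancer cell lines grown in 1536-well plates for 5 days after pin-tool dosing on the day after seeding. Dosing used one drug alone or a fixed anchor-drug dose plus five library-drug doses (not always all listed) in √10 steps, and values are medians of duplicate plates.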

[2] = compound: C(C(=O)C(=O)O)Br [Bromopyruvate] + COc1cc2c(Oc3ccc(NC(=O)C4(C(=O)Nc5ccc(F)cc5)CC4)cc3F)ccnc2cc1OCCCN1CCOCC1 [Foretinib] (partner 0.25 µM); assay: as above
How it was run: as §1

Cell Line | relative viability ([1]; first compound 0.08 µM) | relative viability ([1]; first compound 0.253 µM) | relative viability ([1]; first compound 0.8 µM) | relative viability ([1]; first compound 2.53 µM) | relative viability ([2]; first compound 1 µM) | relative viability ([2]; first compound 3.162 µM) | relative viability ([2]; first compound 10 µM) | relative viability ([2]; first compound 31.62 µM) | relative viability ([2]; first compound 100 µM)
NCI-H1975 | 0.785 | 0.711 | 0.745 | 0.514 | 0.988 | 1.1 | 1.03 | 0.972 | 0.927
CAL-12T | 0.267 | 0.332 | 0.324 | 0.373 | 1.14 | 1.05 | 1.09 | 1.07 | 1.06
NCI-H1623 | – | 0.445 | 0.471 | 0.463 | 0.897 | 0.879 | 0.99 | 0.927 | 0.987
HCC-44 | 1.06 | 0.874 | 0.746 | 1.12 | – | – | – | – | –
EKVX | 0.372 | 0.315 | 0.386 | 0.371 | 0.83 | 0.779 | 0.929 | 0.819 | 1.34
NCI-H1651 | 0.761 | 0.658 | 0.66 | 0.632 | 0.728 | 0.902 | 0.904 | 0.849 | 0.91
NCI-H1944 | 0.246 | 0.232 | 0.256 | 0.257 | 0.954 | 0.83 | 1.03 | 0.874 | 0.913
NCI-H1703 | – | – | – | – | 0.327 | 0.397 | 0.364 | 0.367 | 0.356
Calu-6 | – | – | – | – | 0.9 | 0.891 | 0.938 | 0.856 | 0.613
EBC-1 | – | – | – | – | 0.1 | 0.107 | 0.102 | 0.112 | 0.0941
A-427 | 0.232 | 0.183 | 0.209 | 0.165 | 0.983 | 1.21 | 1.18 | 0.799 | 0.885
NCI-H2405 | 0.876 | 0.691 | 0.715 | 0.656 | 1.08 | 1.07 | 1.08 | 1.04 | 1.04
NCI-H1355 | 0.613 | 0.499 | 0.658 | 0.462 | 0.954 | 0.966 | 1.08 | 0.909 | 0.995
NCI-H358 | 0.136 | 0.108 | 0.108 | 0.105 | 0.764 | 0.71 | 0.761 | 0.598 | 0.653
RERF-LC-KJ | 0.48 | 0.521 | 0.494 | 0.338 | 0.843 | 0.918 | 0.962 | 0.818 | 0.869
NCI-H23 | 0.371 | 0.322 | 0.375 | 0.374 | 0.895 | 0.851 | 0.983 | 0.885 | 0.296
HOP-62 | 0.419 | 0.402 | 0.425 | 0.34 | 1.12 | 1.17 | 1.12 | 0.95 | 0.815
HARA | 0.128 | 0.099 | 0.103 | 0.182 | 0.91 | 0.868 | 0.984 | 0.824 | 0.93
PC-14 | 0.643 | 0.616 | 0.744 | 0.588 | 0.945 | 0.939 | 1.02 | 0.848 | 0.981
NCI-H1755 | 0.458 | 0.625 | 0.576 | 0.599 | 0.936 | 0.923 | 0.925 | 0.909 | 0.937
HCC-78 | 0.43 | 0.351 | 0.472 | 0.347 | 0.55 | 0.533 | 0.589 | 0.539 | 0.532
IA-LM | – | – | – | – | 1.12 | 1.19 | 1.07 | 1.17 | 0.914
NCI-H441 | 0.496 | 0.689 | 0.631 | 0.585 | 1.08 | 1.02 | 0.986 | 0.984 | 0.947
NCI-H322M | 0.522 | 0.478 | 0.51 | 0.504 | 0.978 | 0.964 | 1.02 | 0.99 | 1.05
NCI-H1993 | 0.567 | 0.581 | 0.727 | 0.629 | 0.84 | 0.817 | 0.939 | 0.764 | 0.774
COR-L23 | 0.253 | 0.196 | 0.172 | 0.179 | 0.905 | 0.914 | 1.02 | 0.971 | 0.434
NCI-H2126 | 0.939 | 0.811 | 0.944 | 0.75 | 1.17 | 1.39 | 1.2 | 1.26 | 1.31
LC-2-ad | 0.465 | 0.429 | 0.552 | 0.505 | 0.922 | 0.99 | 1.01 | 0.914 | 0.988
NCI-H1915 | 0.434 | 0.447 | 0.491 | 0.381 | 1.03 | 1.08 | 1.09 | 1 | 1.12
NCI-H1793 | 0.36 | 0.257 | 0.313 | 0.309 | 0.718 | 0.821 | 0.833 | 0.736 | 0.684

Reference: the supplement of paper PMC10307832
